Numbered stars: 1 amine (or outer) side, 2 acyl side, 3 side chain; on linkers, the order of the positions; unused ones are H or OH. Bridge positions count the residues as written; N and C are the ends. Side chains are listed from the residue outwards. Peptide text beside a SMILES is read from it. * marks the point of attachment. C20 diacid = O=C(O)CCCCCCCCCCCCCCCCCCC(=O)*; γGlu = O=C(O)[C@H](CCC(=O)[*:2])N[*:1]; AEEA = NCCOCCOCC(=O)O
Experiments:
[1] = molecular target: T1, human amylin 3(a) receptor (human calcitonin receptor + RAMP-3) in BHK570 cells (Homo sapiens, UniProt O60896+P30988); assay: ASSAY (II)a functional assay, human amylin receptor (CRE luciferase); assay type: cell-based; details: for EC50: human amylin receptor functional potency, assay (II), read-out: hAmylin-R funct. EC50
T1 construct: expressed in transfected cells
T1 sequence (O60896 24-148): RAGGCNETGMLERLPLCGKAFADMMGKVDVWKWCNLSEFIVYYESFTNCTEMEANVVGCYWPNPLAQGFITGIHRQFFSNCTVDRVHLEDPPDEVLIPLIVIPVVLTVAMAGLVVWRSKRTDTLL
T1 sequence (P30988 25-474): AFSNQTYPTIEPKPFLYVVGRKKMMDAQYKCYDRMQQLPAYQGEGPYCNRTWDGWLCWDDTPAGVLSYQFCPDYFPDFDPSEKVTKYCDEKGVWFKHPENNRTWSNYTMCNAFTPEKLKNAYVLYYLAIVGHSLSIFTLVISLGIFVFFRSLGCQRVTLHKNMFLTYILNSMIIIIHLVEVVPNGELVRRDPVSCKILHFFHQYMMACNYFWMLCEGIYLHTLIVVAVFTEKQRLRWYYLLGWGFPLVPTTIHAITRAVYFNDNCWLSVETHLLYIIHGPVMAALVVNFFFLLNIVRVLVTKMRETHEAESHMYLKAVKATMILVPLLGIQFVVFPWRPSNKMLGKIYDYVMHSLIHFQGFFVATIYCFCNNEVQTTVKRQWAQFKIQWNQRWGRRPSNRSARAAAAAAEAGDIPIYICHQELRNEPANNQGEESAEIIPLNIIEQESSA
Outline: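 Cells were seeded and cultured overnight, then incubated with standard or sample for 3 h at 37° C in serum-containing medium at pH 7.4. The medium was then swapped for PBS, LucLite was added for 30 min at room temperature, and luminescence was recorded. Cells were BHK with CRE-luc and calcitonin receptor, ± RAMP-3.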

[2] = ASSAY (III) ThT fibrillation assay for physical stability; assay type: physicochemical
Outline: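 Formulations with 1 μM ThT, pH adjusted as required, incubated at 37 °C with 960 rpm orbital shaking; fluorescence (ex 444/em 485 nm) read every 20 min. Fibrillation reported as mean ThT fluorescence ± SD of 4–8 replicates at time points; polypeptide concentration measured by reverse-phase HPLC before and after, post-centrifugation.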

Sprague Dawley (SD) rats = assay: ASSAY (I) efficacy testing on appetite (food intake) using an ad libitum fed rat model; assay type: in vivo; details: rat
Outline: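 Ad libitum fed SD rats (200–250 g) were housed singly on a reversed light/dark cycle and given one 0.01–3 mg/kg dose ip, po or sc just before lights-off, with 5–8 per dose group plus vehicle controls. Food intake was recorded hourly for 7 h, then at 24 h and sometimes 48 h; Grubbs outliers were excluded.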

[3] = hCTR funct. EC50 divided by hAmylin-R funct. EC50
[4] = hCTR funct. EC50 over hAmylin-R funct. EC50
[5] = human functional selectivity: hCTR funct. EC50 / hAmylin-R funct. EC50

Structure (SMILES) | Ratio hCT/hAmylin funct. [1, 3] | Ratio hCT/hAmylin funct. [1, 4] | EC50 [1] [pM] | Ratio hCT/hAmylin funct. [1, 5] | ThT pH 4.0 lag time (h) [2] [h] | Food intake reduction 0-24 h 30 nmol/kg (%) (Sprague Dawley (SD) rats; 0-24 h) | Food intake reduction 24-48 h 30 nmol/kg (%) (Sprague Dawley (SD) rats; 24-48 h) | Food intake reduction 0-24 h 3 nmol/kg (%) (Sprague Dawley (SD) rats; 3 nmol/kg, 0-24 h) | Food intake reduction 24-48 h 3 nmol/kg (%) (Sprague Dawley (SD) rats; 3 nmol/kg, 24-48 h)
CC[C@H](C)[C@H](NC(=O)[C@H](C)NC(=O)CNC(=O)[C@H](Cc1ccccc1)NC(=O)[C@H](CC(N)=O)NC(=O)[C@@H]1CCCN1C(=O)[C@H](CO)NC(=O)[C@H](CO)NC(=O)[C@H](Cc1c[nH]cn1)NC(=O)[C@H](CCCNC(=N)N)NC(=O)[C@H](CC(C)C)NC(=O)[C@H](Cc1ccccc1)NC(=O)[C@H](CCC(=O)O)NC(=O)[C@H](C)NC(=O)[C@H](CC(C)C)NC(=O)[C@H](CCCNC(=N)N)NC(=O)[C@H](CCC(N)=O)NC(=O)[C@@H](NC(=O)[C@H](C)NC(=O)[C@@H]1CSSC[C@H](NC(=O)[C@@H](N)CCCCNC(=O)CC[C@H](NC(=O)CC[C@H](NC(=O)CCCCCCCCCCCCCCCCCCC(=O)O)C(=O)O)C(=O)O)C(=O)N[C@@H](CC(N)=O)C(=O)N[C@@H]([C@@H](C)O)C(=O)N[C@@H](C)C(=O)N[C@@H]([C@@H](C)O)C(=O)N1)[C@@H](C)O)C(=O)N1CCC[C@H]1C(=O)N[C@@H](CO)C(=O)N[C@@H](CO)C(=O)N[C@H](C(=O)N[C@@H](CC(N)=O)C(=O)N[C@H](C(=O)NCC(=O)N[C@@H](Cc1c[nH]cn1)C(=O)N[C@@H](CC(N)=O)C(=O)N[C@H](C(=O)N[C@@H](Cc1ccc(O)cc1)C(N)=O)[C@@H](C)O)C(C)C)[C@@H](C)O [Example 87] (H-K([γGlu-γGlu-C20 diacid])CNTATCATQRLAEFLRHSSPNFGAIPSSTNVGHNTY-NH2; disulfide 2-7) | 3.8 | 3.8 | 285 | 3.8 | 45 | 29 | 20 |  | 
CC[C@H](C)[C@H](NC(=O)[C@H](C)NC(=O)CNC(=O)[C@H](Cc1ccccc1)NC(=O)[C@H](CC(N)=O)NC(=O)[C@@H]1CCCN1C(=O)[C@H](CO)NC(=O)[C@H](CO)NC(=O)[C@H](Cc1c[nH]cn1)NC(=O)[C@H](CCCNC(=N)N)NC(=O)[C@H](CC(C)C)NC(=O)[C@H](Cc1ccccc1)NC(=O)[C@H](Cc1c[nH]cn1)NC(=O)[C@H](C)NC(=O)[C@H](CC(C)C)NC(=O)[C@H](CCCNC(=N)N)NC(=O)[C@H](CCC(N)=O)NC(=O)[C@@H](NC(=O)[C@H](C)NC(=O)[C@@H]1CSSC[C@H](NC(=O)[C@@H](N)CCCCNC(=O)COCCOCCNC(=O)CC[C@H](NC(=O)CCCCCCCCCCCCCCCCCCC(=O)O)C(=O)O)C(=O)N[C@@H](CC(N)=O)C(=O)N[C@@H]([C@@H](C)O)C(=O)N[C@@H](C)C(=O)N[C@@H]([C@@H](C)O)C(=O)N1)[C@@H](C)O)C(=O)N1CCC[C@H]1C(=O)N[C@@H](CO)C(=O)N[C@@H](CO)C(=O)N[C@H](C(=O)N[C@@H](CC(N)=O)C(=O)N[C@H](C(=O)NCC(=O)N[C@@H](Cc1c[nH]cn1)C(=O)N[C@@H](CC(N)=O)C(=O)N[C@H](C(=O)N[C@@H](Cc1ccc(O)cc1)C(N)=O)[C@@H](C)O)C(C)C)[C@@H](C)O [Example 80] (H-K([AEEA-γGlu-C20 diacid])CNTATCATQRLAHFLRHSSPNFGAIPSSTNVGHNTY-NH2; disulfide 2-7; N-terminus assumed) | 15.4 | 15.4 | 139 | 15.4 | 28 | 46 | 9 |  | 
CC[C@H](C)[C@H](NC(=O)[C@H](C)NC(=O)CNC(=O)[C@H](Cc1ccccc1)NC(=O)[C@H](CC(N)=O)NC(=O)[C@@H]1CCCN1C(=O)[C@H](CO)NC(=O)[C@H](CO)NC(=O)[C@H](Cc1c[nH]cn1)NC(=O)[C@H](CCCNC(=N)N)NC(=O)[C@H](CC(C)C)NC(=O)[C@H](Cc1ccccc1)NC(=O)[C@H](CC(N)=O)NC(=O)[C@H](C)NC(=O)[C@H](CC(C)C)NC(=O)[C@H](CCCNC(=N)N)NC(=O)[C@H](CCC(N)=O)NC(=O)[C@@H](NC(=O)[C@H](C)NC(=O)[C@@H]1CSSC[C@H](NC(=O)[C@H](CCCCN)NC(=O)CC[C@H](NC(=O)CCCCCCCCCCCCCCCCCCC(=O)O)C(=O)O)C(=O)N[C@@H](CC(N)=O)C(=O)N[C@@H]([C@@H](C)O)C(=O)N[C@@H](C)C(=O)N[C@@H]([C@@H](C)O)C(=O)N1)[C@@H](C)O)C(=O)N1CCC[C@H]1C(=O)N[C@@H](CO)C(=O)N[C@@H](CO)C(=O)N[C@H](C(=O)N[C@@H](CC(N)=O)C(=O)N[C@H](C(=O)NCC(=O)N[C@@H](Cc1c[nH]cn1)C(=O)N[C@@H](CC(N)=O)C(=O)N[C@H](C(=O)N[C@@H](Cc1ccc(O)cc1)C(N)=O)[C@@H](C)O)C(C)C)[C@@H](C)O [Example 40] | 16.4 | 16.4 |  | 16.4 | 26 | 51 | 26 |  | 
CC[C@H](C)[C@H](NC(=O)[C@H](C)NC(=O)CNC(=O)[C@H](Cc1ccccc1)NC(=O)[C@H](CC(N)=O)NC(=O)[C@@H]1CCCN1C(=O)[C@H](CO)NC(=O)[C@H](CO)NC(=O)[C@H](Cc1c[nH]cn1)NC(=O)[C@H](CCCNC(=N)N)NC(=O)[C@H](CC(C)C)NC(=O)[C@H](Cc1ccccc1)NC(=O)[C@H](Cc1c[nH]cn1)NC(=O)[C@H](C)NC(=O)[C@H](CC(C)C)NC(=O)[C@H](CCCNC(=N)N)NC(=O)[C@H](CCC(N)=O)NC(=O)[C@@H](NC(=O)[C@H](C)NC(=O)[C@@H]1CSSC[C@H](NC(=O)[C@H](CCCCN)NC(=O)CC[C@H](NC(=O)CCCCCCCCCCCCCCCCCCC(=O)O)C(=O)O)C(=O)N[C@@H](CC(N)=O)C(=O)N[C@@H]([C@@H](C)O)C(=O)N[C@@H](C)C(=O)N[C@@H]([C@@H](C)O)C(=O)N1)[C@@H](C)O)C(=O)N1CCC[C@H]1C(=O)N[C@@H](CO)C(=O)N[C@@H](CO)C(=O)N[C@H](C(=O)N[C@@H](CC(N)=O)C(=O)N[C@H](C(=O)NCC(=O)N[C@@H](CO)C(=O)N[C@@H](CCC(=O)O)C(=O)N[C@H](C(=O)N[C@@H](Cc1ccc(O)cc1)C(N)=O)[C@@H](C)O)C(C)C)[C@@H](C)O [Example 30] ({C20 diacid-γGlu}-KCNTATCATQRLAHFLRHSSPNFGAIPSSTNVGSETY-NH2; disulfide 2-7) | 12.6 | 12.6 |  | 12.6 | 16 | 41 | 17 |  | 

Further lines, with some results ahead:

Ratio hCT/hAmylin funct. [1, 3] | Ratio hCT/hAmylin funct. [1, 4] | EC50 [1] [pM] | Ratio hCT/hAmylin funct. [1, 5] | ThT pH 4.0 lag time (h) [2] [h] | Structure (SMILES) | Food intake reduction 0-24 h 30 nmol/kg (%) (Sprague Dawley (SD) rats; 0-24 h) | Food intake reduction 24-48 h 30 nmol/kg (%) (Sprague Dawley (SD) rats; 24-48 h) | Food intake reduction 0-24 h 3 nmol/kg (%) (Sprague Dawley (SD) rats; 3 nmol/kg, 0-24 h) | Food intake reduction 24-48 h 3 nmol/kg (%) (Sprague Dawley (SD) rats; 3 nmol/kg, 24-48 h)
14.4 | 14.4 |  | 14.4 | 45 | CC[C@H](C)[C@H](NC(=O)[C@H](C)NC(=O)CNC(=O)[C@H](Cc1ccccc1)NC(=O)[C@H](CC(N)=O)NC(=O)[C@@H]1CCCN1C(=O)[C@H](CO)NC(=O)[C@H](CO)NC(=O)[C@H](Cc1c[nH]cn1)NC(=O)[C@H](CCCNC(=N)N)NC(=O)[C@H](CC(C)C)NC(=O)[C@H](Cc1ccccc1)NC(=O)[C@H](CCC(=O)O)NC(=O)[C@H](C)NC(=O)[C@H](CC(C)C)NC(=O)[C@H](CCCNC(=N)N)NC(=O)[C@H](CCC(N)=O)NC(=O)[C@@H](NC(=O)[C@H](C)NC(=O)[C@@H]1CSSC[C@H](NC(=O)[C@@H](N)CCCCNC(=O)CC[C@H](NC(=O)CCCCCCCCCCCCCCCCCCC(=O)O)C(=O)O)C(=O)N[C@@H](CC(N)=O)C(=O)N[C@@H]([C@@H](C)O)C(=O)N[C@@H](C)C(=O)N[C@@H]([C@@H](C)O)C(=O)N1)[C@@H](C)O)C(=O)N1CCC[C@H]1C(=O)N[C@@H](CO)C(=O)N[C@@H](CO)C(=O)N[C@H](C(=O)N[C@@H](CC(N)=O)C(=O)N[C@H](C(=O)NCC(=O)N1CCC[C@H]1C(=O)N[C@@H](Cc1c[nH]cn1)C(=O)N[C@H](C(=O)N[C@@H](Cc1ccc(O)cc1)C(N)=O)[C@@H](C)O)C(C)C)[C@@H](C)O [Example 118] (H-K([γGlu-C20 diacid])CNTATCATQRLAEFLRHSSPNFGAIPSSTNVGPHTY-NH2; disulfide 2-7) | 77 | 30 | 43 | 1
13.3 | 13.3 | 130 | 13.3 | 45 | CC[C@H](C)[C@H](NC(=O)[C@H](C)NC(=O)CNC(=O)[C@H](Cc1ccccc1)NC(=O)[C@H](CC(N)=O)NC(=O)[C@@H]1CCCN1C(=O)[C@H](CO)NC(=O)[C@H](CO)NC(=O)[C@H](Cc1c[nH]cn1)NC(=O)[C@H](CCCNC(=N)N)NC(=O)[C@H](CC(C)C)NC(=O)[C@H](Cc1ccccc1)NC(=O)[C@H](Cc1c[nH]cn1)NC(=O)[C@H](C)NC(=O)[C@H](CC(C)C)NC(=O)[C@H](CCCNC(=N)N)NC(=O)[C@H](CCC(N)=O)NC(=O)[C@@H](NC(=O)[C@H](C)NC(=O)[C@@H]1CSSC[C@H](NC(=O)[C@@H](N)CCCCNC(=O)CC[C@H](NC(=O)CCCCCCCCCCCCCCCCCCC(=O)O)C(=O)O)C(=O)N[C@@H](CC(N)=O)C(=O)N[C@@H]([C@@H](C)O)C(=O)N[C@@H](C)C(=O)N[C@@H]([C@@H](C)O)C(=O)N1)[C@@H](C)O)C(=O)N1CCC[C@H]1C(=O)N[C@@H](CO)C(=O)N[C@@H](CO)C(=O)N[C@H](C(=O)N[C@@H](CC(N)=O)C(=O)N[C@H](C(=O)NCC(=O)N[C@@H](Cc1c[nH]cn1)C(=O)N[C@@H](CC(N)=O)C(=O)N[C@H](C(=O)N[C@@H](Cc1ccc(O)cc1)C(N)=O)[C@@H](C)O)C(C)C)[C@@H](C)O [Example 81] (H-K([γGlu-C20 diacid])CNTATCATQRLAHFLRHSSPNFGAIPSSTNVGHNTY-NH2; disulfide 2-7; N-terminus assumed) | 40 | 3 |  | 

— US9023789B2, “Amylin analogs and pharmaceutical compositions thereof” (Novo Nordisk A/S, priority 2012, dated 2015)
